Where two headings read alike, the source gives them in different places. Blank lines part the entries; values can stand above or below the molecule they belong to.
Tests used:
[1] = biological target: T1, Human DNA-PK (Homo sapiens, UniProt P78527); assay: DNA-dependent protein kinase (DNA-PK) inhibitory activity screening (Eurofins, HTRF); format: biochemical; conditions: ATP: 10 μM; read-out: DNA-PK kinase inhibition IC50
T1 construct: purchased Eurofins (Eurofins Pharma Discovery Service)
Procedure: Experimental Embodiment 1: DNA-Dependent Protein Kinase (DNA-PK) Inhibitory Activity Screening Experiment
This experiment was tested in the Eurofins
Human DNA-PK; Mg/ATP; GST-cMyc-p53; EDTA; Ser15 antibody; ATP: 10 μM.
Experimental Method (Eurofins Pharma Discovery Service):
DNA-PK (h) was incubated in assay buffer containing 50 nM GST-cMyc-p53 and Mg/ATP (according to the required concentration). The reaction was initiated by adding Mg/ATP mixture. After 30 minutes of incubation at room temperature, the reaction was stopped by adding a stop solution containing EDTA. Finally, detection buffer (containing labeled anti-GST monoclonal antibody and europium-labeled anti-Ser15 antibody against phosphorylated p53) was added. The plate was then read in time-resolved fluorescence mode, and the homogeneous time-resolved fluorescence (HTRF) signal was determined according to the formula HTRF=10000×(Em665 nm/Em620 nm).

[2] = Pharmacokinetic evaluation (1): cassette PK in Balb/c male mice, plasma; format: in vivo; conditions: for AUC(0-t) / C0 / clearance / half-life / Vd / Cmax / Tmax / Tlast / AUC0-last / T1/2: mouse plasma; for Vd: read-out: Vdss; for F: mouse, PO 2 mg/kg vs IV 0.4 mg/kg
Procedure: Test compounds were mixed with 10% dimethyl sulfoxide/50% polyethylene glycol 200/40% water (compounds 1, 4, 10, 17) or 20% N,N-dimethylacetamide/80% water (compound 5), vortexed and sonicated to prepare a nearly clear solution of 0.08 mg/mL (compounds 1, 4, 10, 17) or 0.50 mg/mL (compound 5), then filtered through a microporous membrane for next step. Balb/c male mice of 18 to 20 grams were selected and administered intravenously with the candidate compound solution at a dose of 0.4 (compounds 1, 4, 10, 17) or 1 mg/kg (compound 5). Test compounds were mixed with 10% dimethyl sulfoxide/50% polyethylene glycol 200/40% water (compounds 1, 4, 10, 17) or 20%-hydroxypropyl-β-cyclodextrin (compound 5), vortexed and sonicated to prepare a nearly clear solution of 0.2 mg/mL (compounds 1, 4, 10, 17) or 1 mg/mL (compound 5), then filtered through a microporous membrane for next step. Balb/c male mice of 18 to 20 grams were selected and orally administered with the candidate compound solution at a dose of 2 (compounds 1, 4, 10, 17) or 5 mg/kg (compound 5). Whole blood was collected for a certain period of time, and plasma was prepared, then drug concentration was detected by LC-MS/MS method, and pharmacokinetic parameters were calculated by Phoenix WinNonlin software (Pharsight, USA).
IV: intravenous injection; PO: oral; C0: instantaneous […] concentration after intravenous injection; Cmax: highest plasma concentration after administration; Tmax: time required to reach peak of drug concentration after administration; T1/2: time required for the plasma drug concentration to decrease by half, Vdss: apparent volume of distribution, refers to the proportional constant of the drug dose in vivo and the blood drug concentration when the drug reaches a dynamic equilibrium in vivo. Cl: clearance rate, refers to the […] cleared from the body per unit time; Tlast: time at the last detection point; AUC0-last: area under the drug-time curve, refers to the area covered by the plasma concentration curve and the time axis; F: a measure of the speed and degree of drug absorption into the blood circulation, which is an important indicator for evaluating the degree of drug absorption.

[3] = male, Balb/c, PO 2 mg/kg, read-out: Tmax

Structure (SMILES): Cc1cc2ncnn2cc1Nc1ncc2c(n1)n(N1CC3CC(C1)O3)c(=O)n2C [Compound 6]
IC50 [1]: 1 nM

Structure (SMILES): Cc1cc2ncnn2cc1Nc1ncc2c(n1)n(N1C3CCC1COC3)c(=O)n2C [Compound 4]
AUC(0-t) ([2]; male, Balb/c, IV 0.4 mg/kg): 0.286 µM·h
C0 ([2]; male, Balb/c, IV 0.4 mg/kg): 919 nM
clearance ([2]; male, Balb/c, IV 0.4 mg/kg): 57 mL/min/kg
half-life ([2]; male, Balb/c, IV 0.4 mg/kg): 14.4 min
Vd ([2]; male, Balb/c, IV 0.4 mg/kg): 1.08 L/kg
AUC(0-t) ([2]; male, Balb/c, PO 2 mg/kg): 1.74 µM·h
Cmax ([2]; male, Balb/c, PO 2 mg/kg): 1600 nM
half-life ([2]; male, Balb/c, PO 2 mg/kg): 36.5 min
Tmax [2, 3]: 15 min
Tlast ([2]; IV 0.4 mg/kg): 2 h
Tlast ([2]; PO 2 mg/kg): 4 h
F [2]: 123%
IC50 [1]: 1 nM

Structure (SMILES): Cc1cc2nccn2cc1Nc1ncc2c(n1)n(N1CC3CCC(C1)O3)c(=O)n2C [Compound 19]
IC50 [1]: 0.6 nM

Structure (SMILES): Cc1cc2nncn2cc1Nc1ncc2c(n1)n(N1C3CCC1COC3)c(=O)n2C [Compound 18]
IC50 [1]: 0.9 nM

Structure (SMILES): Cc1cc2nccn2cc1Nc1ncc2c(n1)n(N1C3CCC1COC3)c(=O)n2C [Compound 20]
IC50 [1]: 0.9 nM

Structure (SMILES): Cc1nc2nccn2cc1Nc1ncc2c(n1)n(N1C3CCC1COC3)c(=O)n2C [Compound 24]
IC50 [1]: 68 nM

Structure (SMILES): Cc1nc2nccn2cc1Nc1ncc2c(n1)n(N1CC3CCC(C1)O3)c(=O)n2C [Compound 23]
IC50 [1]: 10 nM

Structure (SMILES): Cc1cn2ncnc2cc1Nc1ncc2c(n1)n(N1C3CCC1COC3)c(=O)n2C [Compound 22]
IC50 [1]: 0.4 nM

Further lines, results first:

C0 ([2]; male, Balb/c, IV 0.4 mg/kg): 959 nM
clearance ([2]; male, Balb/c, IV 0.4 mg/kg): 37.7 mL/min/kg
Vd ([2]; male, Balb/c, IV 0.4 mg/kg): 1.51 L/kg
AUC0-last ([2]; IV 0.4 mg/kg): 0.426 µM·h
T1/2 ([2]; IV 0.4 mg/kg): 35.9 min
Tlast ([2]; IV 0.4 mg/kg): 4 h
AUC0-last ([2]; PO 2 mg/kg): 2.497 µM·h
Cmax ([2]; PO 2 mg/kg): 1420 nM
T1/2 ([2]; PO 2 mg/kg): 50.5 min
Tlast ([2]; PO 2 mg/kg): 8 h
Tmax ([2]; PO 2 mg/kg): 30 min
F [2]: 96.4%
IC50 [1]: 2 nM
Structure (SMILES): Cc1cc2ncnn2cc1Nc1ncc2c(n1)n(N1CCOCC1)c(=O)n2C [Compound 1]

IC50 [1]: 5 nM
Structure (SMILES): Cc1cc2ncnn2cc1Nc1ncc2c(n1)n(N1CCC(C#N)CC1)c(=O)n2C [Compound 14]

IC50 [1]: 4 nM
Structure (SMILES): Cc1cc2ncnn2cc1Nc1ncc2c(n1)n(N1CCC3(CCO3)CC1)c(=O)n2C [Compound 12]

IC50 [1]: 0.5 nM
Structure (SMILES): Cc1cc2ncnn2cc1Nc1ncc2c(n1)n(N1CC3CC3C1)c(=O)n2C (stereo not drawn) [Compound 16]

IC50 [1]: 2 nM
Structure (SMILES): Cc1cc2ncnn2cc1Nc1ncc2c(n1)n(N1CCC(F)(F)CC1)c(=O)n2C [Compound 7]

IC50 [1]: 2 nM
Structure (SMILES): Cc1cc2ncnn2cc1Nc1ncc2c(n1)n(N1CCOC3(CCC3)C1)c(=O)n2C [Compound 13]

IC50 [1]: 5 nM
Structure (SMILES): Cc1cc2ncnn2cc1Nc1ncc2c(n1)n(N1CCC3(CC1)COC3)c(=O)n2C [Compound 11]

AUC(0-t) ([2]; male, Balb/c, IV 0.4 mg/kg): 0.64 µM·h
C0 ([2]; male, Balb/c, IV 0.4 mg/kg): 1120 nM
clearance ([2]; male, Balb/c, IV 0.4 mg/kg): 25.4 mL/min/kg
half-life ([2]; male, Balb/c, IV 0.4 mg/kg): 35.5 min
Vd ([2]; male, Balb/c, IV 0.4 mg/kg): 0.883 L/kg
AUC(0-t) ([2]; male, Balb/c, PO 2 mg/kg): 3.83 µM·h
Cmax ([2]; male, Balb/c, PO 2 mg/kg): 2060 nM
half-life ([2]; male, Balb/c, PO 2 mg/kg): 73.2 min
Tmax [2, 3]: 30 min
Tlast ([2]; IV 0.4 mg/kg): 4 h
Tlast ([2]; PO 2 mg/kg): 8 h
F [2]: 120%
IC50 [1]: 2.5 nM
Structure (SMILES): Cc1cc2ncnn2cc1Nc1ncc2c(n1)n(N1CCOC3(CC3)C1)c(=O)n2C [Compound 10]

IC50 [1]: 1 nM
Structure (SMILES): Cc1cc2ncnn2cc1Nc1ncc2c(n1)n(N1CC3CCCC3C1)c(=O)n2C (stereo not drawn) [Compound 15]

IC50 [1]: 0.5 nM
Structure (SMILES): Cc1cn2ncnc2cc1Nc1ncc2c(n1)n(N1CC3CCC(C1)O3)c(=O)n2C [Compound 21]

— US20230026616A1, “PYRIMIDOIMIDAZOLE COMPOUNDS USED AS DNA-PK INHIBITORS” (MEDSHINE DISCOVERY INC., priority 2019, published 2023)
